Laboratory results reported in US9642819B2, “Low dosage serotonin 5-HT2A receptor agonist to suppress inflammation” (BOARD OF SUPERVISORS OF LOUISIANA STATE UNIVERSITY AND …, priority 2008, dated 2017).

How the values were obtained:
[1] = test system: VCAM-1 gene expression; experiment: TNF-α induced VCAM-1 gene expression in primary rat aortic smooth muscle cells; format: cell-based; settings: RASM passage 4, media with FBS, 24 h pretreatment, TNF-α 10 ng/ml, read-out: IC50 for proinflammatory gene expression inhibition for VCAM-1
Procedure: RASM cells and treatment. Rat aortic smooth muscle (RASM) cells were isolated from adult 180 g male Sprague-Dawley rats and provided by the Cell and Molecular Core Facility in the Department of Pharmacology at LSUHSC-NO. Isolated RASM cells were grown in M-199 media containing 10% fetal bovine serum (Gibco), 100 units/mL penicillin, and 100 µg/mL streptomycin, and incubated at 37° C. in 5% CO2. Cells for all assays were used between passages 3 and 5. Prior to treatments, cells were grown in M-199 media with 10% fetal bovine serum (FBS) until 30-50% confluent. […]
RNA isolation and Quantitative Realtime-PCR. […]
The sequences of primers used are: 5-HT2AR (5-hydroxytryptamine 2A receptor): forward primer 5′-[…]-3′ (SEQ ID NO: 1), reverse primer, 5′[…]-3′ (SEQ ID NO: 2); ICAM-1 (intracellular adhesion molecule 1): forward primer, 5′-[…]-3′ (SEQ ID NO: 3, reverse primer, 5′-[…]-3′ (SEQ ID NO: 4); VCAM-1 (vascular adhesion molecule 1): forward primer, 5′-[…]-3′ (SEQ ID NO: 5), reverse primer, 5′-[…]-3′ (SEQ ID NO: 6); IL-6 (interleukin-6): forward primer, 5′-[…] […]-3′ (SEQ ID NO: 7), reverse primer, 5′-[…]-3′ (SEQ ID NO: 8); and cyclophillin B (control amplicon): forward primer, 5′-[…]-3′ (SEQ ID NO: 9), reverse primer, 5′-[…]-3′ (SEQ ID NO: 10). […] Quantitative determination of gene expression levels using a 2-step cycling protocol was performed on a MyIQ-5 Cycler (Bio-Rad, Hercules Calif.). […]

[2] = test system: Nitric Oxide Synthetase (NOS) activity; experiment: NOS activity: nitrite levels in culture medium of RASM cells after TNF-α; format: cell-based, rat; settings: 1 nM pretreatment for 24 hours, TNF-α 10 ng/ml 24 hours
Procedure: Nitric Oxide Synthetase (NOS) Activity. NOS activity was determined by detection of nitrite levels in the cell culture medium following (R)-DOI/TNF-α treatments utilizing the Nitrate Detection kit from Assay Designs (Ann Arbor, Mich.) following the manufacturers protocols. Absorbances were detected at 539 nm on a […] SpectraMax M2 plate reader.
A key participant in inflammatory processes is NOS activity (Guzik et al., 2003). NOS activity can regulate NF-kB activation (Ckless et al., 2007), and cytokine pathway-activated NF-kB can transcriptionally regulate iNOS gene expression (Guo et al., 2007). To examine the effects of 5-HT2A receptor activation on this component of inflammatory mechanisms, primary RASM cells were used to examine the ability of 1 nM (R)-DOI to block TNF-α mediated increases in nitrite levels.
As an indicator of NOS activity, nitrite levels were measured in the cell culture media after treatments and are shown in FIG. 6 as % control. […] Pretreatment with 1 nM (R)-DOI for 24 hours blocked TNF-α mediated increases in nitrite accumulation (DOI+T).

[3] = test system: ICAM-1 gene expression; experiment: TNF-α induced ICAM-1 gene expression in rat C6 glioma cells; format: cell-based; settings: 1 nM and 50 nM prior to TNF-α
Procedure: (§1) Experiments were conducted to analyze for the effect of 5-HT2A receptor activation on proinflammatory marker expression in other cell types. Human neuroblastoma cells (SHSY5Y) and rat glioma cells (C6) can be obtained from the American Type Culture Collection (Manassas, Va.), but were provided Purdue University. The cells were grown in DMEM+10% FBS. DMEM was made and provided by the Cell and Molecular Core of the Mentoring in Cardiovascular Biology COBRE center at LSUHSC-NO. FBS was purchased from Invitrogen (Carlsbad, Calif.). Primary rat aortic endothelial cells were prepared fresh and provided by the Cell and Molecular Core of the Mentoring in Cardiovascular Biology COBRE center at LSUHSC-NO. Cells were tested at passages 3-4. Cells were grown in endothelial cell growth medium (Cell Applications, Inc.). Primary rat bronchoaveolar macrophage cells were obtained by lung lavage from rats and used at day 3 or 4 post plating in DMEM+10% FBS.
(§2) All treatments with 5-HT2A receptor agonists occurred 1 hour prior to the addition of TNF-alpha (10 ng/ml) or LPS (100 ng or 1 mg) depending on the experiment. All RNA isolations, cDNA synthesis, QPCR gene expression assays examining ICAM1, VCAM1, and IL6, and data analysis were performed as described above in Example 1, except the primers were different for the human cell experiment. […]

[4] = test system: VCAM-1 gene expression; experiment: TNF-α induced VCAM-1 gene expression in primary rat bronchoaveolar macrophage cells; format: cell-based
Procedure: as §1, §2

[5] = target: 5-HT2A receptor; settings: read-out: Affinity=Ki for the receptor; cited from earlier work

SMILES: COc1cc(C[C@@H](C)N)c(OC)cc1I [(R)-DOI, (R)-1-(2,5-dimethoxy-4-iodophenyl)-2-aminopropane]
- IC50 [1]: 12 pM
- effect on TNF-α mediated increases in nitrite accumulation [2]: blocked
- effect on ICAM-1 gene expression in rat glioma cells [3]: blocked
- effect on VCAM-1 gene expression in rat bronchoaveolar macrophage cells [4]: potently blocked
- IC50 ([4]; Rattus norvegicus, Macrophage, 1 hour prior to TNF-α 10 ng/ml, read-out: IC50 for VCAM-1 gene expression inhibition in rat bronchoaveolar macrophage cells): ~20 pM
- Ki [5]: 500 pM
